Data reported in patent US8552199B2, “Substituted indanes, method for the production thereof, and use thereof as drugs” (Sanofi, priority 2009, dated 2013).

These compounds were tested against human MCH receptor (Homo sapiens (Human), UniProt Q99705) (assay: calcium mobilization assay (FLIPR); functional IC50 values of MCH1R antagonists). Details: recombinant HEK293 cell line expressing the human MCH receptor, cellular calcium flux after addition of agonist (MCH).
Assay type: cell-based
Description: Influence on the MCH Receptor in vitro; Determination of Functional IC50 Values of MCH1R Antagonists
Cloning of the cDNA for the human MCH receptor, preparation of a recombinant HEK293 cell line which expresses the human MCH receptor, and functional measurements with the recombinant cell line took place in analogy to the description by Audinot et al. (J. Biol. Chem. 2001, 276, 13554-13562). A difference from the reference was, however, the use of the plasmid pEAK8 from EDGE Biosystems (USA) for the construction of the expression vector. The host used for the transfection was a transformed HEK cell line named “PEAK Stable Cells” (likewise from EDGE Biosystems). Functional measurements of the cellular calcium flux after addition of agonist (MCH) in the presence of ligand of the invention took place with the aid of the FLIPR apparatus from Molecular Devices (USA), using protocols of the apparatus manufacturer. The compounds of the invention show a significant inhibition (>30%) of the signal induced by the agonist at a concentration of 100 μM, preferably at 10 μM, particularly preferably at 1 μM, very particularly preferably at 100 nM and very very particularly preferably at 10 nM.

Chain of human MCH receptor (Q99705 whole entry): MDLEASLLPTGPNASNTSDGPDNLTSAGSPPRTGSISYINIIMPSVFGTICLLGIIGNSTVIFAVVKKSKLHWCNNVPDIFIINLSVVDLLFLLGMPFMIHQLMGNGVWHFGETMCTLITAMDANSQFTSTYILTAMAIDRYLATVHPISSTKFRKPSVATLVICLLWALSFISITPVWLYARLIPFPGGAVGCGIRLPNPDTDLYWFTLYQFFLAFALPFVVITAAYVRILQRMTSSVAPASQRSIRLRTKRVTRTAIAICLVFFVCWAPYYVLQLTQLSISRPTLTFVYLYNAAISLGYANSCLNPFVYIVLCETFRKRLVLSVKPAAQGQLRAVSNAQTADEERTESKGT

| SMILES | IC50 |
| --- | --- |
| CCCCOc1ccc(C(=O)N(C)[C@@H]2Cc3ccc(CN4C[C@@H]5CC[C@H]4C5)cc3C2)nc1 [Example 1-62] | 173 nM |
| CN(C(=O)c1ccc(OCC2CC2)cc1)[C@@H]1Cc2ccc(CN3CC[C@H](O)C3)cc2C1 [Example 1-38] | 115 nM |
| CCCCOc1ccc(C(=O)N(C)[C@@H]2Cc3ccc(CNCC4(C)CCOCC4)cc3C2)nc1 [Example 1-72] | 147 nM |
| O=C(N[C@@H]1Cc2ccc(CNCCC3CC3)cc2C1)c1ccc(OCC2CC2)cn1 [Example 1-55] | 848 nM |
| CC[C@H](C)NCc1ccc2c(c1)C[C@H](N(C)C(=O)c1ccc(OCC3CC3)cc1)C2 [Example 1-36] | 198 nM |
| CN(C(=O)c1ccc(OCC2CC2)cc1)[C@@H]1Cc2ccc(CN3CCC3)cc2C1 [Example 1-31] | 111 nM |
| CC1(CNCc2ccc3c(c2)C[C@H](NC(=O)c2ccc(OCC4CC4)cn2)C3)CC1 [Example 1-58] | 1040 nM |
| CCCCOc1ccc(C(=O)N(C)[C@@H]2Cc3ccc(CNC[C@@H]4CCCO4)cc3C2)nc1 [Example 1-66] | 194 nM |
| CN(C(=O)c1ccc(OCC2CC2)cc1)[C@@H]1Cc2ccc(CN3CCCCCC3)cc2C1 [Example 1-09] | 139 nM |
| O=C(N[C@@H]1Cc2ccc(CN3CCCCCC3)cc2C1)c1ccc(OC[C@@H]2CCCO2)cn1 [Example 1-50] | 766 nM |
| CN(C(=O)c1ccc(OCC2CC2)cc1)[C@@H]1Cc2ccc(CNCC3(C)CC3)cc2C1 [Example 1-34] | 121 nM |
| CC(C)(C)CNCc1ccc2c(c1)C[C@H](NC(=O)c1ccc(OC[C@@H]3CCCO3)cc1)C2 [Example 1-42] | 222 nM |
| CCCCOc1ccc(C(=O)N(C)[C@@H]2Cc3ccc([C@H]4CCCN4)cc3C2)cc1 [Example 2, 4-Butoxy-N-methyl-N-((R)-(R)-5-pyrrolidin-2-ylindan-2-yl)benzamide] | 255 nM |
| CN(C(=O)c1ccc(OCC2CC2)cc1)[C@@H]1Cc2ccc(CN3CCC(C(C)(C)O)CC3)cc2C1 [Example 1-05] | 294 nM |
| CN(C(=O)c1ccc(OCC2CC2)cc1)[C@@H]1Cc2ccc(CNCC3CCOCC3)cc2C1 [Example 1-15] | 123 nM |
| CN(C(=O)c1ccc(OC[C@@H]2CCCO2)cc1)[C@@H]1Cc2ccc(CN3CC4CCC3CC4)cc2C1 [Example 1-47] | 229 nM |
| CN1CCCC1c1ccc2c(c1)C[C@H](N(C)C(=O)c1ccc(OCC3CC3)cn1)C2 (stereo partly drawn) [Example 3-1, N-Methyl-N-[(R)-5-(1-methylpyrrolidin-2-yl)indan-2-yl]-5-cyclopropylmethoxypyridine-2-carboxamide] | 1140 nM |
| CN(C(=O)c1ccc(OCC2CC2)cn1)[C@@H]1Cc2ccc(CN3CCCCC3)cc2C1 [Example 1-81] | 179 nM |
| COCCCNCc1ccc2c(c1)C[C@H](N(C)C(=O)c1ccc(OCC3CC3)cc1)C2 [Example 1-27] | 117 nM |
| CN(C(=O)c1ccc(OCC2CC2)cc1)[C@@H]1Cc2ccc(CNCC(C)(C)C)cc2C1 [Example 1-23] | 144 nM |
| O=C1c2ccc(OC[C@@H]3CCCO3)cc2CCN1[C@@H]1Cc2ccc(CNC3CCCCC3)cc2C1 [Example 1-90] | 777 nM |
| CCN(C)Cc1ccc2c(c1)C[C@H](N(C)C(=O)c1ccc(OCC3CC3)cc1)C2 [Example 1-32] | 147 nM |
| CN(C(=O)c1ccc(OC[C@@H]2CCCO2)cc1)[C@@H]1Cc2ccc(CNCC(C)(C)C)cc2C1 [Example 1-46] | 144 nM |
| CC1(C)CCN(Cc2ccc3c(c2)C[C@H](NC(=O)c2ccc(OC[C@@H]4CCCO4)cc2)C3)CC1 [Example 1-40] | 208 nM |
